Bounds are passed on as bounds.

In the first assay the target is T1, P2X7 receptor (Homo sapiens, UniProt Q99572).
T1 construct: host or cells: THP-1 cells differentiated with LPS and IFN-γ
T1 sequence (Q99572 1-595): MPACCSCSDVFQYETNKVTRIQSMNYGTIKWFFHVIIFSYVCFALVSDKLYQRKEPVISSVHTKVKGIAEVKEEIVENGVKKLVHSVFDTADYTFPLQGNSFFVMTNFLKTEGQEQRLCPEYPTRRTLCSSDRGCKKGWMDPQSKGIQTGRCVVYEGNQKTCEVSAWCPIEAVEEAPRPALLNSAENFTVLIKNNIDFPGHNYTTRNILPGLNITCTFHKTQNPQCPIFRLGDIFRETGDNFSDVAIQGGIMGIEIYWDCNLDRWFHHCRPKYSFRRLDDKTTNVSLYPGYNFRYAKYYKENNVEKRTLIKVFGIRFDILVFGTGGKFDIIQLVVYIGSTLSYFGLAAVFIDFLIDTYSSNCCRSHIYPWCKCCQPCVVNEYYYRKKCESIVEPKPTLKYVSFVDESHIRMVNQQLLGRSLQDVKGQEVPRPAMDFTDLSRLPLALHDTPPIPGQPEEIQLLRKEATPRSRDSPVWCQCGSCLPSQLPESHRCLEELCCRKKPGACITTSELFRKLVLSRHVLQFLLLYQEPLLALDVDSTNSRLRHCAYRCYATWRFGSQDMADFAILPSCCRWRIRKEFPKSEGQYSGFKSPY
The assay can be described thus: IL-1β release assay (BzATP-stimulated, LPS/IFN-γ differentiated THP-1 cells, ELISA). Particulars: at 0.1 μM (asterisk symbols). The assay is classed as cell-based. On the procedure:
THP-1 cells (ATCC Cat # 285-IF-100) are plated in 96 well plates at a concentration of 200,000 cells per well and allowed to differentiate in RPMI-1640 media (ATCC Cat # 30-2001) containing 10% FBS, 100 IU/mL penicillin, 100 ug/mL streptomycin, 100 ng/mL LPS and 100 ng/mL IFN-γ for 16 hours. Following differentiation, the cells are treated for an additional 2 hours in RPMI-1640 media containing 100 IU/mL penicillin, 100 ug/mL streptomycin and fresh LPS at 100 ng/mL. The cells are then pretreated for 30 minutes with the compound of interest at the appropriate concentration in RPMI media containing 100 IU/mL penicillin, 100 ug/mL streptomycin. Following the pretreatment 2′,3′-O-(4-benzoylbenzoyl)-adenosine 5′-triphosphate (Sigma Aldrich Cat# B6396) is added to a final concentration of 250 uM and the cells incubated for an additional 45 minutes. 30 uL of cell supernatant is then collected and […] levels determined via ELISA (R&D systems Cat. # HSLB50) according to manufacturer's recommendations using the Tecan Safire plate reader. Background adjusted IL-1β levels of drug treated and non-treated cells are used to calculate the percent inhibition.
What is called inhibition is the change of the read-out against control, counted positive when it falls. Consider `Cc1cnc(Cn2ccc3c(NC(=O)CC45CC6CC(C)(CC(C)(C6)C4)C5)cccc3c2=O)cn1` [Compound 757], for which the inhibition at 0.1 µM is at least 75%.
For `O=C(CC12CC3CC(CC(C3)C1)C2)Nc1cccc2c(=O)n(C[C@H]3CCCO3)ccc12` [Compound 771], the inhibition at 0.1 µM is at least 75%.
On the same count and under the same terms, for `CN1CCN(CCCn2ccc3c(NC(=O)CC45CC6CC(CC(C6)C4)C5)cccc3c2=O)CC1` [Compound 787] the value was at least 75%; for `O=C(CC12CC3CC(CC(C3)C1)C2)Nc1cccc2c(=O)n(C[C@H]3CCCN3)ccc12` [Compound 811], at least 75%.
Consider `CC12CC3CC(C)(C1)CC(CC(=O)Nc1cccc4c(=O)n(Cc5ccc(F)cc5F)ccc14)(C3)C2` [Compound 764], for which the inhibition at 0.1 µM is at least 75%.
On the same count and under the same terms, for `O=C(CC12CC3CC(CC(C3)C1)C2)Nc1cccc2c(=O)n(Cc3ccccc3Cl)ccc12` [Compound 793] the value was at least 75%.
On the same count and under the same terms, in the case of `O=C(CC12CC3CC(CC(C3)C1)C2)Nc1cccc2c1CCN(Cc1c(F)cccc1F)C2=O` [Compound 798] it was at least 75%; in that of `NC(=O)[C@H](Cc1ccccc1)n1ccc2c(NC(=O)CC34CC5CC(CC(C5)C3)C4)cccc2c1=O` [Compound 776], at least 75%; in that of `O=C(CC12CC3CC(CC(C3)C1)C2)Nc1cccc2c(=O)n(Cc3cn4ccccc4n3)ccc12` [Compound 770], at least 75%.
On to `CC12CC3CC(C)(C1)CC(CC(=O)Nc1cccc4c1CCN(Cc1ccccc1F)C4=O)(C3)C2` [Compound 839], for which the inhibition at 0.1 µM lay in the range of 50 to 75%.
The same measure, in the same setting: in the case of `O=C(CC12CC3CC(CC(C3)C1)C2)Nc1cccc2c(=O)n(CCc3c[nH]cn3)ccc12` [Compound 808] it was at least 75%.
Consider `CC12CC3CC(C)(C1)CC(CC(=O)Nc1cccc4c(=O)n(Cc5cccnc5)ccc14)(C3)C2` [Compound 756], for which the inhibition at 0.1 µM was 50 to 75%.
`O=C(CC12CC3CC(CC(C3)C1)C2)Nc1cccc2c(=O)n(Cc3nccs3)ccc12` [Compound 885]: the inhibition at 0.1 µM is at least 75%.
`CC12CC3CC(C)(C1)CC(CC(=O)Nc1cccc4c(=O)n(CC5COc6ccccc6O5)ccc14)(C3)C2` (centres unmarked) [Compound 766] returned an inhibition at 0.1 µM of 50 to 75%.
With `CC(C)C(CO)n1ccc2c(NC(=O)CC34CC5CC(CC(C5)C3)C4)cccc2c1=O` (centres unmarked) [Compound 887], the inhibition at 0.1 µM is at least 75%.
Turning to `CC(c1ccccc1)N1CCc2c(NC(=O)CC34CC5CC(C)(CC(C)(C5)C3)C4)cccc2C1=O` (centres unmarked) [Compound 838], the inhibition at 0.1 µM is at least 75%.
In turn, `O=C(CC12CC3CC(CC(C3)C1)C2)Nc1cccc2c1CCN(CC1COCCO1)C2=O` (centres unmarked) [Compound 796] showed an inhibition at 0.1 µM of at least 75%.
Same read-out and setting: in the case of `O=C(CC12CC3CC(CC(C3)C1)C2)Nc1cccc2c(=O)n(CCc3cccnc3)ccc12` [Compound 782] it was at least 75%; in that of `O=C(CC12CC3CC(CC(C3)C1)C2)Nc1cccc2c1CCN(C(CO)CO)C2=O` [Compound 827], at least 75%; in that of `O=C(CC12CC3CC(CC(C3)C1)C2)Nc1cccc2c(=O)n(CCc3ccccn3)ccc12` [Compound 785], 50 to 75%.
For the compound `O=C(CC12CC3CC(CC(C3)C1)C2)Nc1cccc2c1CCN(CCc1c[nH]cn1)C2=O` [Compound 802], the inhibition at 0.1 µM was at least 75%.
Still for that read-out and setting: in the case of `O=C(CC12CC3CC(CC(C3)C1)C2)Nc1cccc2c1CCN(CC1CCNCC1)C2=O` [Compound 875] it was at least 75%.
With `Cc1cnc(CN2CCc3c(NC(=O)CC45CC6CC(C)(CC(C)(C6)C4)C5)cccc3C2=O)cn1` [Compound 778], the inhibition at 0.1 µM was at least 75%.
Compound `CC(c1ccccn1)n1ccc2c(NC(=O)CC34CC5CC(CC(C5)C3)C4)cccc2c1=O` (centres unmarked) [Compound 858] returned an inhibition at 0.1 µM of at least 75%.
With `NC(=O)CCn1ccc2c(NC(=O)CC34CC5CC(CC(C5)C3)C4)cccc2c1=O` [Compound 829], the inhibition at 0.1 µM was at least 75%.
On to `CC12CC3CC(C)(C1)CC(CC(=O)Nc1cccc4c1CCN(Cc1ccccc1)C4=O)(C3)C2` [Compound 777], for which the inhibition at 0.1 µM is at least 75%.
On the same count and under the same terms, in the case of `O=C(CC12CC3CC(CC(C3)C1)C2)Nc1cccc2c(=O)n(Cc3ccoc3)ccc12` [Compound 873] it was at least 75%.
Same read-out and setting: in the case of `O=C(CC12CC3CC(CC(C3)C1)C2)Nc1cccc2c(=O)n(CCO)ccc12` [Compound 845] it was at least 75%.
`Cc1cc(CN2CCc3c(NC(=O)CC45CC6CC(CC(C6)C4)C5)cccc3C2=O)nn1C` [Compound 797]: the inhibition at 0.1 µM is at least 75%.
On the same count and under the same terms, in the case of `O=C(CC12CC3CC(CC(C3)C1)C2)Nc1cccc2c(=O)n(Cc3cccc4c3OCCO4)ccc12` [Compound 769] it was at least 75%; in that of `O=C(CC12CC3CC(CC(C3)C1)C2)Nc1cccc2c1CCN(CC1CCOCC1)C2=O` [Compound 833], at least 75%; in that of `CC(C)(C)OC(=O)N1CCCC1CN1CCc2c(NC(=O)CC34CC5CC(CC(C5)C3)C4)cccc2C1=O` (centres unmarked) [Compound 857], at least 75%.
Still for that read-out and setting: for `Cn1ccc2c(NC(=O)CC34CC5CC(CC(C5)C3)C4)cccc2c1=O` [Compound 805, adamantyl-N-(2-methyl-1-oxo-1,2-dihydroisoquinolin-5-yl)acetamide] the value was at least 75%; for `O=C(CC12CC3CC(CC(C3)C1)C2)Nc1cccc2c1CCNC2=O` [Compound 874], at least 75%; for `CN1CCCC1CCN1CCc2c(NC(=O)CC34CC5CC(CC(C5)C3)C4)cccc2C1=O` (centres unmarked) [Compound 879], at least 75%.
Same read-out and setting: for `CS(=O)(=O)c1ccc(Cn2ccc3c(NC(=O)CC45CC6CC(CC(C6)C4)C5)cccc3c2=O)cc1` [Compound 768] the value was 50 to 75%.

The same assay, now with this note: at 0.3 μM (plus symbols).
As to `O=C(CC12CC3CC(CC(C3)C1)C2)Nc1cccc2c(=O)n(Cc3ccncc3)ccc12` [Compound 716], the inhibition at 0.3 µM was at least 75%.
On the same count and under the same terms, for `C[C@H](c1ccccc1)n1ccc2c(NC(=O)CC34CC5CC(CC(C5)C3)C4)cccc2c1=O` [Compound 721] the value was at least 75%; for `O=C(CC12CC3CC(CC(C3)C1)C2)Nc1cccc2c1CCN(Cc1ccc(F)cc1F)C2=O` [Compound 725, 2-Adamantan-1-yl-N-[2-(2,4-difluoro-benzyl)-1-oxo-1,2,3,4-tetrahydro-isoquinolin-5-yl]-acetamide], at least 75%.
For `Cc1cnc(Cn2ccc3c(NC(=O)CC45CC6CC(CC(C6)C4)C5)cccc3c2=O)cn1` [Compound 710], the inhibition at 0.3 µM was at least 75%.
As to `C[C@@H](c1ccccc1)n1ccc2c(NC(=O)CC34CC5CC(CC(C5)C3)C4)cccc2c1=O` [Compound 720], the inhibition at 0.3 µM was at least 75%.
On the same count and under the same terms, for `Cc1cc(Cn2ccc3c(NC(=O)CC45CC6CC(CC(C6)C4)C5)cccc3c2=O)no1` [Compound 737] the value was at least 75%.
In the case of `C[C@H](CO)n1ccc2c(NC(=O)CC34CC5CC(CC(C5)C3)C4)cccc2c1=O` [Compound 897], the inhibition at 0.3 µM is at least 75%.
On to `CC(C)Cn1ccc2c(N(C)C(=O)CC34CC5CC(CC(C5)C3)C4)cccc2c1=O` [Compound 893], for which the inhibition at 0.3 µM was in the range of 25 to 50%.
Still for that read-out and setting: for `O=C(CC12CC3CC(CC(C3)C1)C2)Nc1cccc2c(=O)n(Cc3ccccc3F)ccc12` [Compound 706] the value was at least 75%.
In the case of `CC(CO)n1ccc2c(NC(=O)CC34CC5CC(CC(C5)C3)C4)cccc2c1=O` (centres unmarked) [Compound 888], the inhibition at 0.3 µM was at least 75%.
Same read-out and setting: in the case of `O=C(CC12CC3CC(CC(C3)C1)C2)Nc1cccc2c1CCN(CC1CCCO1)C2=O` (centres unmarked) [Compound 726] it was at least 75%; in that of `O=C(CC12CC3CC(CC(C3)C1)C2)Nc1cccc2c1CCN(Cc1cccnc1)C2=O` [Compound 728], at least 75%.
The same measure, in the same setting: for `O=C(CC12CC3CC(CC(C3)C1)C2)Nc1cccc2c(=O)n(Cc3ccc(F)cc3F)ccc12` [Compound 705] the value was at least 75%; for `CN(C)c1ccc(Cn2ccc3c(NC(=O)CC45CC6CC(CC(C6)C4)C5)cccc3c2=O)cc1` [Compound 747], at least 75%.
Still for that read-out and setting: for `CN1CCC(CN2CCc3c(NC(=O)CC45CC6CC(C)(CC(C)(C6)C4)C5)cccc3C2=O)CC1` [Compound 894] the value was at least 75%; for `CC(C)(C)OC(=O)N1CCC(Cn2ccc3c(NC(=O)CC45CC6CC(CC(C6)C4)C5)cccc3c2=O)CC1` [Compound 748], at least 75%.
As to `CC12CC3CC(C)(C1)CC(CC(=O)Nc1cccc4c(=O)n(CC5CCNCC5)ccc14)(C3)C2` [Compound 890], the inhibition at 0.3 µM was at least 75%.

Source of the values: patent US20090170838A1, “Bicycloheteroaryl compounds as P2X7 modulators and uses thereof” (Renovis, Inc., priority 2005, published 2009).
